From US12435044B2, “Pyridazinone herbicides and pyridazinone intermediates used to prepare a herbicide” (FMC Corporation, priority 2018, dated 2025)

Columns and labels:
Format in all cases: in vivo
[1] = system: palmer amaranth (AMAPA; Amaranthus palmeri); assay: Test G preemergence, mixtures of Cpd. No. 20 with (b15C1)
Description: (§1) This test evaluated the effect of mixtures of Cpd. No. 20 with (b15C1) on several plant species. Seeds of plant species selected from corn (ZEAMD; Zea mays, cv. ‘Pioneer 1184’), soybean (GLXMA; Glycine max, cv. Pioneer 35T58), giant foxtail (SETFA; Setaria faberi), barnyardgrass (ECHCG; Echinochloa crus-galli), large crabgrass (DIGSA; Digitaria sanguinalis), palmer amaranth (AMAPA; Amaranthus palmeri), common waterhemp (AMATU; Amaranthus rudis), and common ragweed (AMBEL; Ambrosia artemisiifolia) were planted in pots containing Tama Silt Loam soil and treated preemergence with a directed soil spray using test chemicals formulated in a non-phytotoxic solvent mixture which included a surfactant.
(§2) Treated plants and untreated controls were maintained in a greenhouse for approximately 21 d, after which time all treated plants were compared to untreated controls and visually evaluated for injury. Plant response ratings, summarized in Table G, are based on a 0 to 100 scale where 0 is no effect and 100 is complete control. A dash (-) response means no test result. Test results are presented as a mean of 4 reps.

[2] = system: soybean (GLXMA; Glycine max, cv. Pioneer 35T58); assay: as above
Description: as §1, §2

[3] = system: corn (ZEAMD; Zea mays, cv. ‘Pioneer 1184’); assay: as above
Description: as §1, §2

[4] = system: common ragweed (AMBEL; Ambrosia artemisiifolia); assay: as above
Description: as §1, §2

[5] = system: giant foxtail (SETFA; Setaria faberi); assay: as above
Description: as §1, §2

[6] = system: common waterhemp (AMATU; Amaranthus rudis); assay: as above
Description: as §1, §2

[7] = system: large crabgrass (DIGSA; Digitaria sanguinalis); assay: as above
Description: as §1, §2

[8] = system: barnyardgrass (ECHCG; Echinochloa crus-galli); assay: as above
Description: as §1, §2

[9] = system: redstem (purple redstem, Ammannia coccinea); assay: Test F flooded paddy test; conditions: Flood, after 21 d
Description: Three plastic pots (ca. 16-cm diameter) per rate were partially filled with sterilized Tama silt loam soil comprising a 35:50:15 ratio of sand, silt and clay and 2.6% organic matter. Separate plantings for each of the three pots were as follows. Seeds from the U.S. of monochoria (Monochoria vaginalis), sedge, umbrella (small-flower umbrella sedge, Cyperus difformis) and redstem (purple redstem, Ammannia coccinea), were planted into one 16-cm pot for each rate. Seeds from the U.S. of rice flatsedge (Cyperus iria), sprangletop, Brdd. (bearded sprangletop, Leptochloa fascicularis), one stand of 9 or 10 water seeded rice seedlings (Rice, W. S. Jap, Oryza sativa cv. ‘Japonica-M202’ or Rice, W. S. Ind, ‘Indica’), and two stands of 3 or 4 transplanted rice seedlings (Oryza sativa cv. ‘Japonica-M202’) were planted into one 16-cm pot for each rate. Seeds from the U.S. of barnyardgrass (Echinochloa crus-galli), and late watergrass (Echinochloa oryzicola) were planted into one 16-cm pot for each rate.
Plantings were sequential so that crop and weed species were at the 2.0 to 2.5-leaf stage at time of treatment.
Potted plants were grown in a greenhouse with day/night temperature settings of 30/27° C., and supplemental balanced lighting was provided to maintain a 16-hour photoperiod. Test pots were maintained in the greenhouse until test completion.
At time of treatment, test pots were flooded to 3 cm above the soil surface, treated by application of test compounds directly to the paddy water, and then maintained at that water depth for the duration of the test. Effects of treatments on rice and weeds were visually evaluated by comparison to untreated controls after 21 d. Plant response ratings, summarized in Table F, are based on a scale of 0 to 100 where 0 is no effect and 100 is complete control. A dash (-) response means no test result.

[10] = system: nightshade (eastern black nightshade, Solanum ptycanthum); assay: Test C postemergence greenhouse test; conditions: scale 0 to 100
Outline: (§3)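 Test chemicals were formulated in a non-phytotoxic solvent mixture with surfactant and applied preemergence to seeds in silt loam soil or postemergence to plants of 2 to 18 cm in a peat/vermiculite medium. After 13 to 21 d in a greenhouse, response was visually scored from 0 (no effect) to 100 (complete control).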

[11] = system: horseweed (Conyza canadensis); assay: Test C postemergence greenhouse test; conditions: scale 0 to 100
Outline: as §3

Cc1ccc2ccc(C)c(-c3c(O)c(Cl)nn(C)c3=O)c2c1 [Cpd. No. 20, 6-chloro-4-(2,7-dimethyl-1-naphthalenyl)-5-hydroxy-2-methyl-3(2H)-pyridazinone]
Plant response rating (0 to 100 scale) ([1]; Cpd. No. 20 16 g a.i./ha alone): 73 | Plant response rating (0 to 100 scale) ([1]; Cpd. No. 20 31 g a.i./ha alone): 70 | Plant response rating (0 to 100 scale) ([1]; Cpd. No. 20 62 g a.i./ha alone): 78 | Plant response rating (0 to 100 scale) ([2]; Cpd. No. 20 16 g a.i./ha alone): 0 | Plant response rating (0 to 100 scale) ([2]; Cpd. No. 20 31 g a.i./ha alone): 18 | Plant response rating (0 to 100 scale) ([2]; Cpd. No. 20 62 g a.i./ha alone): 24 | Plant response rating (0 to 100 scale) ([3]; Cpd. No. 20 16 g a.i./ha alone): 0 | Plant response rating (0 to 100 scale) ([3]; Cpd. No. 20 31 g a.i./ha alone): 0 | Plant response rating (0 to 100 scale) ([3]; Cpd. No. 20 62 g a.i./ha alone): 0 | Plant response rating (0 to 100 scale) ([4]; Cpd. No. 20 16 g a.i./ha alone): 48 | Plant response rating (0 to 100 scale) ([4]; Cpd. No. 20 31 g a.i./ha alone): 73 | Plant response rating (0 to 100 scale) ([4]; Cpd. No. 20 62 g a.i./ha alone): 74 | Plant response rating (0 to 100 scale) ([5]; Cpd. No. 20 16 g a.i./ha alone): 66 | Plant response rating (0 to 100 scale) ([5]; Cpd. No. 20 31 g a.i./ha alone): 88 | Plant response rating (0 to 100 scale) ([5]; Cpd. No. 20 62 g a.i./ha alone): 74 | Plant response rating (0 to 100 scale) ([6]; Cpd. No. 20 16 g a.i./ha alone): 55 | Plant response rating (0 to 100 scale) ([6]; Cpd. No. 20 31 g a.i./ha alone): 96 | Plant response rating (0 to 100 scale) ([6]; Cpd. No. 20 62 g a.i./ha alone): 99 | Plant response rating (0 to 100 scale) ([7]; Cpd. No. 20 16 g a.i./ha alone): 9 | Plant response rating (0 to 100 scale) ([7]; Cpd. No. 20 31 g a.i./ha alone): 11 | Plant response rating (0 to 100 scale) ([7]; Cpd. No. 20 62 g a.i./ha alone): 25 | Plant response rating (0 to 100 scale) ([8]; Cpd. No. 20 16 g a.i./ha alone): 21 | Plant response rating (0 to 100 scale) ([8]; Cpd. No. 20 31 g a.i./ha alone): 51 | Plant response rating (0 to 100 scale) ([8]; Cpd. No. 20 62 g a.i./ha alone): 70 | Plant response rating (0 to 100 scale) ([9]; 31 g ai/ha): 0 | Plant response rating (0 to 100 scale) ([9]; 62 g ai/ha): 0 | Plant response rating (0 to 100 scale) ([9]; 125 g ai/ha): 92 | Plant response rating (0 to 100 scale) ([9]; 250 g ai/ha): 99

Cc1cc(Cl)c2ccccc2c1-c1c(O)c(Cl)nn(C)c1=O [Cpd. No. 65]
Plant response rating, Nightshade ([10]; 16 g ai/ha): 90 | Plant response rating, Nightshade ([10]; 31 g ai/ha): 100 | Plant response rating, Nightshade ([10]; 62 g ai/ha): 100 | Plant response rating, Nightshade ([10]; 125 g ai/ha): 100

Cc1ccc2ccc(F)cc2c1-c1c(O)c(Cl)nn(C)c1=O [Cpd. No. 21]
Plant response rating, Horseweed ([11]; 16 g ai/ha): 80 | Plant response rating, Horseweed ([11]; 31 g ai/ha): 85 | Plant response rating, Horseweed ([11]; 62 g ai/ha): 90 | Plant response rating, Horseweed ([11]; 125 g ai/ha): 90
